What was measured:
Settings in all cases: average where tested multiple times
BCAT2 [1] = target: T1, BCAT2 (Homo sapiens, UniProt O15382); test: BCAT2 in vitro enzyme inhibition assay (resazurin/diaphorase-coupled fluorescence); format: biochemical
T1 sequence (O15382 28-392): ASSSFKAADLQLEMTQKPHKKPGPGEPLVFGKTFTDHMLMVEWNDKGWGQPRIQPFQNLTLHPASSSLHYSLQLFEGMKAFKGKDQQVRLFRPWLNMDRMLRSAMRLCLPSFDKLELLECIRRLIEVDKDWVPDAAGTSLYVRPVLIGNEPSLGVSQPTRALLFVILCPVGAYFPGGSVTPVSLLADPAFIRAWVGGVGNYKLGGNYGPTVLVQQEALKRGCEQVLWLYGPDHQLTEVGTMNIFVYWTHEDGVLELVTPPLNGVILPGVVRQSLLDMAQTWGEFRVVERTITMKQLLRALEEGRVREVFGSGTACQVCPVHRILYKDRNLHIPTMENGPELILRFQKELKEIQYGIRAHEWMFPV
In short: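 Coupled fluorescence readout: glutamate formed from L-leucine/α-ketoglutarate transamination drives GDH/NAD/diaphorase reduction of resazurin (Ex 540/Em 590). Human BCAT2 was first exposed 1 h at room temperature to compound, top final 100 μM in 3-fold, 10-point series; substrate reaction ran 1 h before SDS quench, in technical duplicate with DMSO max and enzyme-free min controls.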

hBCAT1 = target: T2, hBCAT1 (Homo sapiens, UniProt P54687); test: BCAT1 in vitro enzyme inhibition assay (resazurin/diaphorase-coupled fluorescence); format: biochemical
T2 sequence (P54687 1-386): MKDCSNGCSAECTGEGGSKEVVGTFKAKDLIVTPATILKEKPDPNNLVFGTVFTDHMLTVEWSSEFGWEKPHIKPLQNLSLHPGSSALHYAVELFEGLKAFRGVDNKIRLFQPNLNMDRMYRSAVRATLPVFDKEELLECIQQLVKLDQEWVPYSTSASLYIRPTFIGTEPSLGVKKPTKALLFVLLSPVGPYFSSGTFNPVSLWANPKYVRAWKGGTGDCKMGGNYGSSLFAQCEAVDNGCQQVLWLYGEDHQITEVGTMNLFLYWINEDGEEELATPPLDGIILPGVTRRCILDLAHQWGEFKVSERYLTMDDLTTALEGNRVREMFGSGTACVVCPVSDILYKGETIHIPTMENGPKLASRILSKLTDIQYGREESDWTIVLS
In short: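 Human BCAT1 activity read by resazurin/diaphorase-coupled fluorescence. Compounds added from 50× DMSO stocks at 1:50, giving 10-point 3-fold titrations from 100 μM top final concentration. Run in technical duplicate; repeat tests averaged.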

BCAT2 [2] = target: T1, BCAT2; test: BCAT2 in vitro cell inhibition using engineered A549 cells (KMV cell assay, 13C6-KMV by LC-MS/MS); format: cell-based; parameters: The result was an engineered A549 cell line that expressed endogenous BCAT2; endogenous in cells; host or cells: A549 cells with MUT and BCAT1 knocked out by CRISPR/CAS9

Structure (SMILES) | IC50 (BCAT2 [1]) [nM] | IC50 (hBCAT1) [nM] | IC50 (BCAT2 [2]) [nM]
CC(C)[C@H](N)c1nc2cnc(-c3ccccn3)cc2n1[C@@H]1CCC[C@H](NC(=O)c2ncc(Cl)s2)C1 [Example 166, N-((1S,3R)-3-(2-((S)-1-amino-2-methylpropyl)-6-(pyridin-2-yl)-1H-imidazo[4,5-c]pyridin-1-yl)cyclohexyl)-5-chlorothiazole-2-carboxamide] | ≤ 100 | < 500 | 100 to 500
O=C(N[C@H]1CCC[C@@H](n2c(-c3ccccc3F)nc3cnc(-c4cc(F)ccn4)cc32)C1)c1ncc(Cl)s1 [Example 168, 5-chloro-N-((1S,3R)-3-(2-(2-fluorophenyl)-6-(4-fluoropyridin-2-yl)-1H-imidazo[4,5-c]pyridin-1-yl)cyclohexyl)thiazole-2-carboxamide] | ≤ 100 | < 500 | ≤ 100
O=C(N[C@H]1CCC[C@@H](n2c(-c3ccccc3F)nc3cnc(-c4ncccc4F)cc32)C1)c1ncc(Cl)s1 [Example 169, 5-chloro-N-((1S,3R)-3-(2-(2-fluorophenyl)-6-(3-fluoropyridin-2-yl)-1H-imidazo[4,5-c]pyridin-1-yl)cyclohexyl)thiazole-2-carboxamide] | ≤ 100 | < 500 | ≤ 100
O=C(N[C@H]1CCC[C@@H](n2c(-c3ccccc3F)nc3cnc(-c4ccc(F)cn4)cc32)C1)c1ncc(Cl)s1 [Example 170, 5-chloro-N-((1S,3R)-3-(2-(2-fluorophenyl)-6-(5-fluoropyridin-2-yl)-1H-imidazo[4,5-c]pyridin-1-yl)cyclohexyl)thiazole-2-carboxamide] | ≤ 100 | < 500 | ≤ 100
CC(C)[C@H](O)c1nc2cnc(-c3ncccn3)cc2n1[C@@H]1CCC[C@H](NC(=O)c2ncc(Cl)s2)C1 [Example 171, 5-chloro-N-((1S,3R)-3-(2-((S)-1-hydroxy-2-methylpropyl)-6-(pyrimidin-2-yl)-1H-imidazo[4,5-c]pyridin-1-yl)cyclohexyl)thiazole-2-carboxamide] | ≤ 100 | < 500 | > 1000
CC(C)[C@@H](O)c1nc2cnc(-c3ncccn3)cc2n1[C@@H]1CCC[C@H](NC(=O)c2ncc(Cl)s2)C1 [Example 172, 5-chloro-N-((1S,3R)-3-(2-((R)-1-hydroxy-2-methylpropyl)-6-(pyrimidin-2-yl)-1H-imidazo[4,5-c]pyridin-1-yl)cyclohexyl)thiazole-2-carboxamide] | ≤ 100 | < 500 | 500 to 1000
C=Cc1csc(C(=O)N[C@H]2CCC[C@@H](n3c(-c4ccccc4F)nc4cnc(-c5nc[nH]n5)cc43)C2)n1 [Example 173, N-((1S,3R)-3-(2-(2-fluorophenyl)-6-(1H-1,2,4-triazol-3-yl)-1H-imidazo[4,5-c]pyridin-1-yl)cyclohexyl)-4-vinylthiazole-2-carboxamide] | ≤ 100 | 1000 to 5000 | 500 to 1000
O=C(N[C@H]1CCC[C@@H](n2c(-c3ncccc3F)nc3cnc(-c4nc[nH]n4)cc32)C1)c1ncc(Cl)s1 [Example 175, 5-chloro-N-((1S,3R)-3-(2-(3-fluoropyridin-2-yl)-6-(1H-1,2,4-triazol-3-yl)-1H-imidazo[4,5-c]pyridin-1-yl)cyclohexyl)thiazole-2-carboxamide] | ≤ 100 | < 500 | ≤ 100
O=C(N[C@H]1CCC[C@@H](n2c(-c3ccccc3F)nc3cnc(-c4ccncc4)cc32)C1)c1ncc(Cl)s1 [Example 178, 5-chloro-N-((1S,3R)-3-(2-(2-fluorophenyl)-6-(pyridin-4-yl)-1H-imidazo[4,5-c]pyridin-1-yl)cyclohexyl)thiazole-2-carboxamide] | ≤ 100 | 500 to 1000 | 100 to 500
COc1cccc(-c2cc3c(cn2)nc(-c2ccccc2F)n3[C@@H]2CCC[C@H](NC(=O)c3ncc(Cl)s3)C2)n1 [Example 179, 5-chloro-N-((1S,3R)-3-(2-(2-fluorophenyl)-6-(6-methoxypyridin-2-yl)-1H-imidazo[4,5-c]pyridin-1-yl)cyclohexyl)thiazole-2-carboxamide] | ≤ 100 | < 500 | ≤ 100
O=C(N[C@H]1CCC[C@@H](n2c(-c3ccccc3F)nc3cnc(-c4cccnc4)cc32)C1)c1ncc(Cl)s1 [Example 180, 5-chloro-N-((1S,3R)-3-(2-(2-fluorophenyl)-6-(pyridin-3-yl)-1H-imidazo[4,5-c]pyridin-1-yl)cyclohexyl)thiazole-2-carboxamide] | ≤ 100 | 1000 to 5000 | 100 to 500
Cn1ccc(-c2cc3c(cn2)nc(-c2ccccc2F)n3[C@@H]2CCC[C@H](NC(=O)c3ncc(Cl)s3)C2)n1 [Example 181, 5-chloro-N-((1S,3R)-3-(2-(2-fluorophenyl)-6-(1-methyl-1H-pyrazol-3-yl)-1H-imidazo[4,5-c]pyridin-1-yl)cyclohexyl)thiazole-2-carboxamide] | ≤ 100 | < 500 | ≤ 100
O=C(N[C@H]1CCC[C@@H](n2c(-c3ccccn3)nc3cnc(-c4nc[nH]n4)cc32)C1)c1ncc(Cl)s1 [Example 184, 5-chloro-N-((1S,3R)-3-(2-(pyridin-2-yl)-6-(1H-1,2,4-triazol-3-yl)-1H-imidazo[4,5-c]pyridin-1-yl)cyclohexyl)thiazole-2-carboxamide] | ≤ 100 | < 500 | ≤ 100
O=C(N[C@H]1CCC[C@@H](n2c(-c3ccccc3F)nc3cnc(-c4ncccn4)cc32)C1)c1ncc(Cl)s1 [Example 185, 5-chloro-N-((1S,3R)-3-(2-(2-fluorophenyl)-6-(pyrimidin-2-yl)-1H-imidazo[4,5-c]pyridin-1-yl)cyclohexyl)thiazole-2-carboxamide] | ≤ 100 | < 500 | ≤ 100
Cc1cn[nH]c1-c1cc2c(cn1)nc(-c1ccccc1F)n2[C@@H]1CCC[C@H](NC(=O)c2ncc(Cl)s2)C1 [Example 186, 5-chloro-N-((1S,3R)-3-(2-(2-fluorophenyl)-6-(4-methyl-1H-pyrazol-5-yl)-1H-imidazo[4,5-c]pyridin-1-yl)cyclohexyl)thiazole-2-carboxamide] | ≤ 100 | < 500 | ≤ 100
CC(C)C(=O)c1nc2cnc(-c3nc[nH]n3)cc2n1[C@@H]1CCC[C@H](NC(=O)c2ncc(Cl)s2)C1 [Example 187, 5-chloro-N-((1S,3R)-3-(2-isobutyryl-6-(1H-1,2,4-triazol-3-yl)-1H-imidazo[4,5-c]pyridin-1-yl)cyclohexyl)thiazole-2-carboxamide] | 100 to 500 | 1000 to 5000 | 100 to 500
O=C(N[C@H]1CCC[C@@H](n2c(-c3ccccc3F)nc3cnc(-c4cccnn4)cc32)C1)c1ncc(Cl)s1 [Example 188, 5-chloro-N-((1S,3R)-3-(2-(2-fluorophenyl)-6-(pyridazin-3-yl)-1H-imidazo[4,5-c]pyridin-1-yl)cyclohexyl)thiazole-2-carboxamide] | ≤ 100 | 1000 to 5000 | 100 to 500
O=C(N[C@H]1CCC[C@@H](n2c(-c3ccccc3F)nc3cnc(-c4cnn[nH]4)cc32)C1)c1ncc(Cl)s1 [Example 189, 5-chloro-N-((1S,3R)-3-(2-(2-fluorophenyl)-6-(1H-1,2,3-triazol-5-yl)-1H-imidazo[4,5-c]pyridin-1-yl)cyclohexyl)thiazole-2-carboxamide] | ≤ 100 | < 500 | ≤ 100
O=C(N[C@H]1CCC[C@@H](n2c(Oc3ccccc3F)nc3cnc(-c4nc[nH]n4)cc32)C1)c1ncc(Cl)s1 [Example 192, 5-chloro-N-((1S,3R)-3-(2-(2-fluorophenoxy)-6-(1H-1,2,4-triazol-3-yl)-1H-imidazo[4,5-c]pyridin-1-yl)cyclohexyl)thiazole-2-carboxamide] | ≤ 100 | 1000 to 5000 | > 1000
